# From article doi:10.1101/2021.11.01.466777v1 (bioRxiv, 2021)
# Starred links: 1 amine or outer side, 2 acyl side, 3 side chain; linkers in the order of their positions; H or OH if unused. Positions of bridges follow the written chain, without caps; N, C: chain ends. Non-standard residues stand in square brackets, D forms with d. Residues, ends and D or L forms follow the SMILES beside them. *: point of attachment. dAsp(3R-OH) = N[C@@H](C(=O)O)[C@@H](O)C(=O)O; X1 = NC[C@H](O)[C@@H](N[*:1])C(=O)[*:2]; X2 = CCC(C)(O)[C@H](N[*:1])C(=O)[*:2]; d(aIle) = CC[C@H](C)[C@@H](N)C(=O)O; d(aThr) = C[C@@H](O)[C@@H](N)C(=O)O; Myristoyl = CCCCCCCCCCCCCC(=O)*; dOrn = NCCC[C@@H](N)C(=O)O; hSer = N[C@@H](CCO)C(=O)O
# What was measured:
# [1] = Pharmacokinetics after IV slow bolus in uninfected mice; assay type: in vivo, mouse (female BALB/c); details: 5 mg/kg IV; for Plasma concentration, Mean: mean of n = 3
# [2] = system: neutropenic female BALB/c mice; assay: Toxicity and Maximum Tolerated Dose; assay type: in vivo, mouse
# [3] = human volunteers; no reference given; cited from earlier work
compound,measurement,setting,value
CCCCCCCCCCCCCC(=O)N[C@H](CCCN)C(=O)N[C@@H](CO)C(=O)N[C@H](C(=O)N[C@@H](C(=O)N[C@@H](C(=O)N[C@H]1C(=O)NCC(=O)N[C@@H](C(C)(O)CC)C(=O)N[C@H]([C@@H](C)CC)C(=O)N[C@@H](CCO)C(=O)N[C@@H](C)C(=O)N[C@H]([C@@H](C)CC)C(=O)N[C@@H](CCC(=O)O)C(=O)O[C@@H]1C)[C@@H](O)CN)[C@@H](O)C(=O)O)C(C)C (stereo partly drawn) [turnercyclamycin A] (Myristoyl-[dOrn]SV[dAsp(3R-OH)][X1][d(aThr)]G[X2][d(aIle)][hSer]A[d(aIle)]E; ester 6-C),"Plasma concentration, Mean",[1]; 0.05 h,53333 ng/mL
same,Sample concentration in plasma,"[1]; 0.05 h, sample 1, LC-MS/MS",52235 ng/mL
same,Sample concentration in plasma,"[1]; 0.05 h, sample 2, LC-MS/MS",51887 ng/mL
same,Sample concentration in plasma,"[1]; 0.05 h, sample 3, LC-MS/MS",55877 ng/mL
same,"Plasma concentration, Mean",[1]; 0.167 h,38646 ng/mL
same,Sample concentration in plasma,"[1]; 0.167 h, sample 1, LC-MS/MS",36107 ng/mL
same,Sample concentration in plasma,"[1]; 0.167 h, sample 2, LC-MS/MS",38906 ng/mL
same,Sample concentration in plasma,"[1]; 0.167 h, sample 3, LC-MS/MS",40924 ng/mL
same,"Plasma concentration, Mean",[1]; 1 h,29269 ng/mL
same,Sample concentration in plasma,"[1]; 1 h, sample 1, LC-MS/MS",24635 ng/mL
same,Sample concentration in plasma,"[1]; 1 h, sample 3, LC-MS/MS",29337 ng/mL
same,"Plasma concentration, Mean",[1]; 2 h,26200 ng/mL
same,Sample concentration in plasma,"[1]; 2 h, sample 1, LC-MS/MS",26373 ng/mL
same,Sample concentration in plasma,"[1]; 2 h, sample 2, LC-MS/MS",25446 ng/mL
same,Sample concentration in plasma,"[1]; 2 h, sample 3, LC-MS/MS",26782 ng/mL
same,"Plasma concentration, Mean",[1]; 4 h,22542 ng/mL
same,Sample concentration in plasma,"[1]; 4 h, sample 1, LC-MS/MS",22923 ng/mL
same,Sample concentration in plasma,"[1]; 4 h, sample 2, LC-MS/MS",22209 ng/mL
same,Sample concentration in plasma,"[1]; 4 h, sample 3, LC-MS/MS",22495 ng/mL
same,"Plasma concentration, Mean",[1]; 8 h,11971 ng/mL
same,Sample concentration in plasma,"[1]; 8 h, sample 1, LC-MS/MS",11661 ng/mL
same,Sample concentration in plasma,"[1]; 8 h, sample 2, LC-MS/MS",13130 ng/mL
same,Sample concentration in plasma,"[1]; 8 h, sample 3, LC-MS/MS",11123 ng/mL
same,"Plasma concentration, Mean",[1]; 24 h,931 ng/mL
same,Sample concentration in plasma,"[1]; 24 h, sample 1, LC-MS/MS",974 ng/mL
same,Sample concentration in plasma,"[1]; 24 h, sample 2, LC-MS/MS",764 ng/mL
same,Sample concentration in plasma,"[1]; 24 h, sample 3, LC-MS/MS",1054 ng/mL
same,CL,"[1]; mouse plasma, NCA",0.29 mL/min/kg
same,Sample concentration in plasma,"[1]; time printed 0 h, sample 1, LC-MS/MS",34373 ng/mL
same,Sample concentration in plasma,"[1]; time printed 0 h, sample 2, LC-MS/MS",31954 ng/mL
same,Sample concentration in plasma,"[1]; time printed 0 h, sample 3, LC-MS/MS",34645 ng/mL
same,body weight change,"[2]; 25 mg/kg (printed mg/mL) IV BID q12h, 24 hours after first treatment",no body weight drop was observed
same,mortality,"[2]; 25 mg/kg (printed mg/mL) IV BID q12h, n = 3",did not induce mortality in any mice
same,Body Weight,"[2]; 25 mg/kg IV bid (q12h) x1, mouse No. 7, Day 0 (first)",17 g
same,Body Weight,"[2]; 25 mg/kg IV bid (q12h) x1, mouse No. 7, Day 1",17 g
same,Body Weight,"[2]; 25 mg/kg IV bid (q12h) x1, mouse No. 8, Day 0 (first)",17 g
same,Body Weight,"[2]; 25 mg/kg IV bid (q12h) x1, mouse No. 8, Day 1",17 g
same,body weight change,"[2]; 50 mg/kg (printed mg/mL) IV BID q12h, 24 hours post-treatment",slight body weight losses were observed
same,mortality,"[2]; 50 mg/kg (printed mg/mL) IV BID q12h, n = 3",did not induce mortality in any mice
same,Body Weight,"[2]; 50 mg/kg IV bid (q12h) x1, mouse No. 4, Day 0 (first)",16 g
same,Body Weight,"[2]; 50 mg/kg IV bid (q12h) x1, mouse No. 4, Day 0 (second)",15 g
same,Body Weight,"[2]; 50 mg/kg IV bid (q12h) x1, mouse No. 4, Day 1",15 g
same,Body Weight,"[2]; 50 mg/kg IV bid (q12h) x1, mouse No. 5, Day 0 (first)",15 g
same,Body Weight,"[2]; 50 mg/kg IV bid (q12h) x1, mouse No. 5, Day 1",14 g
same,Body Weight,"[2]; 50 mg/kg IV bid (q12h) x1, mouse No. 6, Day 0 (first)",16 g
same,Body Weight,"[2]; 50 mg/kg IV bid (q12h) x1, mouse No. 6, Day 0 (second)",16 g
same,Body Weight,"[2]; 50 mg/kg IV bid (q12h) x1, mouse No. 6, Day 1",16 g
same,mortality,[2]; 100 mg/kg IV,fatal in the first mouse
same,well tolerated dose,"[2]; mice, IV BID q12h",up to 25 mg/kg
same,Maximum Tolerated Dose (MTD),"[2]; neutropenic female BALB/c mice, IV BID q12h, n = 3 per dose",25 mg/kg
daptomycin,volume of distribution,[3],0.1 L/kg
